According to patent publication US10485845B2, “Neuronal pain pathway” (THE TRUSTEES OF COLUMBIA UNIVERSITY IN THE CITY OF NEW YORK, priority 2005, dated 2019):
Entries after “also recorded” stand apart in the source; their conditions may differ.

Experiments:
PKG [1] = conditions: see Setyawan et al., 1999; read-out: inhibitory of PKG at concentration of; cited from earlier work
apMAPK [2] = test: Axotomy-induced apMAPK nuclear translocation in SNs (D8 antibody immunostaining, confocal microscopy); assay type: cell-based, Aplysia; conditions: 10 μM, SNs in vitro; for nuclear staining of apMAPK: fixed on the third day
Method: Equal amounts of Alexa Fluor 546-labeled BSA, apPKG, or ERK1 were microinjected into the cytoplasm of SNs after 2 d in vitro. The neurites were then severed with a fine needle to elicit an injury response, and 30 min later, the cells were examined by confocal microscopy. […] Scale bar, 20 μm. B, Rp-8-pCPT-cGMPs inhibits axotomy-induced apMAPK nuclear translocation. SNs untreated as controls, and those exposed to either 10 μM Rp-8-pCPT-cGMPs (Rp-cGMPs) or Rp-cAMPs for 2 d in vitro, were immunostained with D8 antibody to localize apMAPK. Top, Representative examples of 2 μm optical sections of control SNs and those exposed to Rp-8-pCPT-cGMPs or Rp-cAMPs. Scale bar, 20 μm. Bottom, Histogram of the mean value of nuclear MAPK immunoreactivity. The staining intensity was determined by a person who was blind to the treatment that the cells received. n, Number of cells for each treatment. Asterisk indicates significant difference from control (p<0.05 by ANOVA and Newman-Keuls tests).
Ganglia, nerve, or cultured cells were fixed with 4% paraformaldehyde in PBS, pH 7.4. The primary antibody was diluted in TBS supplemented with 0.1-0.5% Triton X-100 in TBS and 5% goat serum, and incubated overnight at 4° C. After several washes, an Alexa Fluor 594- or 488-conjugated secondary antibody (Molecular Probes, Eugene, Oreg.) was applied for 1 hr at room temperature. Subsequently, the cells were visualized by confocal fluorescence microscopy (LSM510 confocalmicroscope; Zeiss, Oberkochen, Germany), and images were collected.
The inability of apPKG to enter the nucleus of Aplysia SNs is consistent with the idea that it contributes to the induction of LTH by promoting the nuclear import of apMAPK. If so, then inhibiting the apPKG pathway should block the axotomy-induced entry of apMAPK into the nucleus. Therefore, SNs were exposed in vitro either to the PKG blocker, Rp-8-pCPTcGMPS, or the PKA blocker, Rp-cAMPS, under the conditions that induce LTH (FIG. 6A). On the third day, the cells were fixed, permeabilized, and exposed to antibody D8 to visualize ap-MAPK. […]

apPKG = test: In vitro kinase assay of recombinant apPKG (32P transfer from ATP to BPDEtide); assay type: biochemical, Aplysia; conditions: 100 nM 8-Br-cGMP, BPDEtide substrate
Method: FIG. 2A-C. apPKG is a type-1 PKG. […] Activity caused by autophosphorylation was subtracted using a peptide control reaction (see Materials and Methods). Note that the kinase activity was inhibited in the presence of 10 μM PKG inhibitor Rp-8-pCPT-cGMPS (RP-G). B, Kinase activity of active recombinant apPKG (25 ng) and bovine PKG type-Iα (bPKG Iα (50 ng) in the presence of four type-I PKG peptide substrates: peptide A, RKISASGP (SEQ ID NO:21); B, RKISASEFDRPLR (SEQ ID NO:22; BPDEtide); and D, RKRSRAE (SEQ ID NO:23) H2Btide). Peptide C, QKRPRRKDTP (SEQ ID NO:24), is a type-II PKG substrate. C, apPKG phosphorylates recombinant VASP at serine-239. Purified recombinant VASP-GST (0.5 μg) was incubated with active apPKG (100 ng) or the recombinant bovine PKG (50 ng), or in the kinase buffer alone, at room temperature for 20 min. After SDS-PAGE, a Western blot was probed with an anti-phospho-VASP (Ser 239) (p-VASP 5239) antibody.
These studies establish apPKG as a member of the soluble type-I family of PKGs.

Aplysia SNs [3] = test: Induction of LTH in axotomized SNs in vitro (electrophysiology); assay type: cell-based, Aplysia californica; conditions: inhibitor added to 2-d-cultured SN
PKG [4] = test: Blocking of PKG activity at the site of sciatic nerve injury in rat; assay type: in vivo; conditions: nerve injured in presence of inhibitor; four hours after injury
Method: FIG. 9. Relative PKG activity at various positions of the sciatic nerve relative to point of injury, shown schematically above the graph.
The experiment was carried out as follows. A rat was anesthetized using a standard protocol and the sciatic nerve was exposed and injured in either the absence or the presence of RP-G, or an inhibitor of PKA, Rp-8-pCPT-cAMPS, (“RP-A”). Four hours later, the nerve was sectioned as shown in the schematic above the graph in FIG. 9, and each segment was assayed for PKG activity. In the absence of inhibitor (black bars), active PKG had been transported toward the cell bodies and was enriched in P3.

Aplysia SNs [5] = test: Induction of LTH in axotomized SNs in vitro (electrophysiology); assay type: cell-based, Aplysia californica; conditions: for decrease in spike threshold / increase in repetitive firing: 10 μM, SNs grown in presence of inhibitor, third day in vitro
Method: FIG. 6A-D. Inhibiting NOS, sGC, or apPKG prevents the induction of LTH in SNs in vitro. SNs were removed from the cluster and grown in vitro in the presence of Rp-8-pCPT-cGMPS (RpcGMPS), Rp-8-pCPT-cAMPS (RpcAMPS), or ODQ (all 10 μM). Other SNs removed at the same time were not exposed to any inhibitors as controls (C). A, B, On the third day in vitro, 12 SNs exposed to Rp-cGMPS, Rp-cAMPS, or ODQ, and 12 control SNs were impaled with a microelectrode to assess repetitive firing in response to stimulation at three test currents (A) and to determine spike threshold (B). We examined the cells on the third day, and not later, to avoid more prolonged exposure to the drugs. […] Error bars indicate SEM, and the asterisks indicate significance (p<0.0001 in each case). […] C, Detection of nNOS mRNA in single SNs by RT-PCR. Fragments of appropriate lengths were amplified with primer sets for apnNOS, sensorin A, and the neuron-specific isoform of actin from five separate sets of samples from SNs in vivo (0) or after 16 hr in vitro. The size of the synthesized fragments detected by ethidium bromide staining on 2% agarose gels were identical with those predicted from the known sequences in the database. In addition, the PCR products were verified by DNA sequence analysis. Finally, there was no amplification in the absence of reverse transcriptase, indicating the RNA preparations were not contaminated by genomic DNA (bottom panel). Positions of molecular markers are indicated on the left. D, Effects of the NOS inhibitors on LTH. L-Thiocitrulline (50 μM) and L-NAME (1 mM) were used as described above. n, Number of SNs. The data were normalized to the average excitability of control cells in the same preparation. The asterisk indicates significance (p<0.001), comparing LTH with and without inhibitor by ANOVA and Dunnett's test. Error bars indicate SEM.
Medium was changed every 2 d. Drugs were washed out 1 hr before electrophysiological tests.
Before the start of each recording, the hemolymph was replaced with a 1:1 mixture of artificial seawater and culture medium (without hemolymph; pH 7.6). Standard techniques were used for intracellular stimulation and recording (Ambron et al., 1996). The soma spike threshold was measured with a standard series of 20 msec depolarizing pulses. Repetitive firing was quantified by counting the number of spikes evoked by a series of 2 sec depolarizing pulses at 1, 2, 3, 4, and 5 nA, or 1 sec depolarizing pulses at 2.5 times the current for the 20 msec threshold. Spike amplitude was measured from baseline to the peak of the action potential, and spike duration was the breadth of the action potential at one-half of its maximal height.
To investigate whether the appearance of the LTH requires apPKG activity, the SNs were removed from the ganglion in the presence of either the soluble guanylyl cyclase (sGC) inhibitor ODQ, the PKG inhibitor Rp-8-pCPT-cGMPS, or the PKA inhibitor Rp-cAMPS. The latter was used because PKA has properties in common with PKG (Scott, 1991; Francis and Corbin, 1994) and has been implicated in various forms of synaptic plasticity in Aplysia SNs (Ghirardi et al., 1992; Byrne and Kandel, 1996; Bedi et al., 1998; Muller and Carew, 1998; Chain et al., 1999; Liao et al., 1999; Sutton and Carew, 2000; Antonov et al., 2003). The cells were subsequently allowed to regenerate in the presence of the inhibitors in vitro, and on the third day, their electrophysiological properties were compared with those of SNs that were removed from the same ganglia at the same time, but that had not been exposed to a drug. […] Neither spike broadening nor amplitude were evaluated in these experiments.

apMAPK [6] = tested on: apMAPK
Method: Top, Left, Twenty-five micrograms of a pleural ganglia lysate collected at the indicated times after p5-p9 nerve crush were resolved by SDS-PAGE, and a Western blot was probed with Ab pTpYmapk to detect active ERK-MAPKs. […] All of the values were normalized to levels of total apMAPK. […] Each of the following experiments (B-E) was repeated twice at least, and representative results are shown. […] Left, Pleural neurons were removed from a noninjured animal, a lysate was prepared, and 25 μg was incubated with 100 ng of active apPKG protein or with 1 μM 8-Br-cGMP in the presence or absence of 10 μM U0126. Right, Twenty-five micrograms of axoplasm was incubated with active apPKG as above. Active apMAPK was detected by immunoblotting with Ab pTpYmapk.
ERK activity was assayed as described (Sung et al., 2001). Briefly, proteins and 500 μM ATP were incubated in kinase buffer for 20 min at room temperature. The reaction mixtures were resolved on 10% SDS polyacrylamide gels and subjected to Western blotting with antibody (Ab)pTpYmapk, AbpYmapk, AbpTmapk, or AbpElk1.

rats = conditions: intrathecal, 10 and 60 minutes later; cited from earlier work
Aplysia SNs [7] = conditions: SNs exposed to drug in vitro
Method: SNs were isolated from the pleural ganglia of 50-80 gm animals and were plated on poly-L-lysine-coated dishes containing L15 medium and 50% hemolymph (Dagan and Levitan, 1981; Glanzman etal., 1989). Cultures were maintained at 18° C. for up to 7 d. Medium was changed every 2 d. Drugs were washed out 1 hr before electrophysiological tests.

Compound: 10″ deoxybalanol
- IC50 (PKG [1]): 31 nM

Compound: 14″ decarboxy balanol
- IC50 (PKG [1]): 19 nM

Compound: Nc1nc2c(nc(Sc3ccc(Cl)cc3)n2C2OC3COP(O)(=S)OC3C2O)c(=O)[nH]1 (single isomer, unassigned) [Rp-8-pCPT-cGMPS, guanosine 3′,5′-cyclic monophosphorothioate, 8-(4-chlorophenylthio)-, Rp isomer]
- reduction in the level of apMAPK in the nucleus of the SNs (apMAPK [2]): nearly threefold reduction
- nuclear staining of apMAPK (apMAPK [2]): dramatic reduction
- kinase activity of purified inactive recombinant apPKG (apPKG; 10 μM inhibitor): inhibited
- appearance of excitability (Aplysia SNs [3]): Neither Rp-8-pCPT-cGMPS nor ODQ inhibited
- PKG activity in sciatic nerve segments (PKG [4]): abolished the activity
- decrease in spike threshold (Aplysia SNs [5]): prevented
- increase in repetitive firing (Aplysia SNs [5]): prevented
- decrease in spike threshold (Aplysia SNs [5]; listed as Rp-cGMPS): significantly prevented
- increase in repetitive firing (Aplysia SNs [5]; listed as Rp-cGMPS): significantly reduced

Compound: Nc1ncnc2c1ncn2[C@@H]1O[C@@H]2COP(O)(=S)O[C@H]2[C@H]1O (single isomer, unassigned) [Rp-cAMPS, adenosine 3′,5′-cyclic monophosphorothioate, Rp isomer]
- nuclear staining of apMAPK (apMAPK [2]): same levels
- decrease in spike threshold (Aplysia SNs [5]): no significant effect; also recorded: not significant
- increase in repetitive firing (Aplysia SNs [5]): no significant effect

Compound: Nc1nc2c(nc(Br)n2[C@@H]2O[C@@H]3COP(=O)(O)O[C@H]3[C@H]2O)c(=O)[nH]1 [8-Br-cGMP]
- activation of inactive apPKG (apPKG): activated
- level of active apMAPK (apMAPK [6]; 1 μM 8-Br-cGMP added to 25 μg lysate): markedly enhanced

Compound: COC(=O)[C@@H](N)CCCN=C(N)N[N+](=O)[O-].Cl [L-NAME, N^G-nitro-L-arginine methyl ester hydochioride]
- LTH (maximum firing relative to untreated controls) (Aplysia SNs [5]; 1 mM, SNs in vitro): reduced LTH

Compound: NC(=S)NCCC[C@H](N)C(=O)O [L-Thiocitrulline, L-thiocitrulline]
- maximum firing relative to untreated controls (LTH) (Aplysia SNs [5]; 50 μM, SNs in vitro): markedly reduced

Compound: O=c1onc2cnc3ccccc3n12 [ODQ, 1-H[1,2,4]oxadiazolo[4,3-a]quinoxalin-1-one]
- appearance of excitability (Aplysia SNs [3]): Neither Rp-8-pCPT-cGMPS nor ODQ inhibited
- decrease in spike threshold (Aplysia SNs [5]): significantly prevented
- increase in repetitive firing (Aplysia SNs [5]): prevented; also recorded: significantly reduced

Compound: Nc1ncnc2c1nc(Sc1ccc(Cl)cc1)n2C1OC2COP(O)(=S)OC2C1O (stereo not drawn) [RP-A, Rp-8-pCPT-cAMPS]
- PKG activity in sciatic nerve segments (PKG [4]): did not change this pattern

Compound: CCN(CC)CC.Nc1nc2c(nc(Sc3ccc(Cl)cc3)n2[C@@H]2O[C@@H]3COP(O)(=S)O[C@H]3[C@H]2O)c(=O)[nH]1 (stereo partly drawn) [Rp-8-[4-chlorophenyl)thio-cGMPS triethylamine]
- antinociception (rats): significant antinociception

Compound: N#CC(=C(/N)Sc1ccccc1N)/C(C#N)=C(\N)Sc1ccccc1N [U0126]
- extent or pattern of neurite growth (Aplysia SNs [7]): severe growth defects
- block of apMAPK activation by active apPKG or 8-Br-cGMP (apMAPK [6]; 10 μM U0126): not blocked

Compound: O=C(NC1CNCCCC1OC(=O)c1cc(O)c(C(=O)c2c(O)cccc2C(=O)O)c(O)c1)c1ccc(O)cc1 (stereo not drawn) [balanol]
- IC50 (PKG [1]): 1.6 nM

Compound: balanol-7R
- IC50 (PKG [1]): 291 nM
